{"source": "paper PMC2610413", "about": "(Bioorganic & medicinal chemistry letters, 2008)", "key": {"EGFR (T790M)": {"test_system": "EGFR (T790M)", "conditions": "cited from earlier work"}, "full-length Flag-Bmx": {"target": "T1, full-length Flag-Bmx (Homo sapiens, UniProt P51813)", "T1 sequence (P51813 1-675)": "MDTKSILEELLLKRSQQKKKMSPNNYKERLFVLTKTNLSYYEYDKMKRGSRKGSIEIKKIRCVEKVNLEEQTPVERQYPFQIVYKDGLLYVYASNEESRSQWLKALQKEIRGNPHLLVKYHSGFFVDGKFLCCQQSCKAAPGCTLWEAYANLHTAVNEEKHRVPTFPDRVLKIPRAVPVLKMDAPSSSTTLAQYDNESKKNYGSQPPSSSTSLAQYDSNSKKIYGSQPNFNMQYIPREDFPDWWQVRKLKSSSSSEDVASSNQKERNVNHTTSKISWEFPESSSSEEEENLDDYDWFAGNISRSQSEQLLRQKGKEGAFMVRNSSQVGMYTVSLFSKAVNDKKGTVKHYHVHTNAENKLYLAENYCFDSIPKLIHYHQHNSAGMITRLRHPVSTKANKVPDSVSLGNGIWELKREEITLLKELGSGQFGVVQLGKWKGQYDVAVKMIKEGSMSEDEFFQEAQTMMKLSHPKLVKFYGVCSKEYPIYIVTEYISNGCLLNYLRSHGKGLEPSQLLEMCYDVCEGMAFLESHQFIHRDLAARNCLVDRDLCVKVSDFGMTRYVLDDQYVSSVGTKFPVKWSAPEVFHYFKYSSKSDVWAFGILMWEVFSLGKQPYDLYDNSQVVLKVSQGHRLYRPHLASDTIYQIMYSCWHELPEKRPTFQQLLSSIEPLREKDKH", "conditions": "10 μM; immunoprecipitated Flag-Bmx pre-incubated with drug at 4°C for 2 hrs"}, "Bmx kinase domain": {"target": "Bmx kinase domain (Homo sapiens, UniProt P51813)", "experiment": "Mass spectrometry of covalent modification of recombinant Bmx kinase domain", "format": "binding"}, "Bmx": {"target": "T2, Bmx (Homo sapiens, UniProt P51813)", "T2 sequence (P51813 1-675)": "T1 sequence (P51813 1-675)", "experiment": "Biochemical enzymatic kinase assay, Bmx"}, "[1]": {"target": "Tel-wild-type Bmx transformed Ba/F3 cells (Homo sapiens, UniProt P51813)", "sequence (P41212 1-336 partner, one chain of several)": "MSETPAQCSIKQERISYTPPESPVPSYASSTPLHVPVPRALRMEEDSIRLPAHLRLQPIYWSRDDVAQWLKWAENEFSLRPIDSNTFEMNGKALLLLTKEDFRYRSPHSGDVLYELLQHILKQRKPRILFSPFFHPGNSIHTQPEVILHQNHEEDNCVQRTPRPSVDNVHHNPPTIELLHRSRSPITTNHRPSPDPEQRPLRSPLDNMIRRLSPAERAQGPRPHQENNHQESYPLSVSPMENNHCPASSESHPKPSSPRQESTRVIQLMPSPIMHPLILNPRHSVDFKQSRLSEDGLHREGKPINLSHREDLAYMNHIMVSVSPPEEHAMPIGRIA", "experiment": "Cytotoxicity assay, Tel-wild-type Bmx transformed Ba/F3 cells", "format": "cell-based", "conditions": "cellular assay"}, "[2]": {"conditions": "cited from earlier work"}, "Blk": {"target": "Blk (Homo sapiens, UniProt P51451)", "sequence (P51451 whole entry, species assumed)": "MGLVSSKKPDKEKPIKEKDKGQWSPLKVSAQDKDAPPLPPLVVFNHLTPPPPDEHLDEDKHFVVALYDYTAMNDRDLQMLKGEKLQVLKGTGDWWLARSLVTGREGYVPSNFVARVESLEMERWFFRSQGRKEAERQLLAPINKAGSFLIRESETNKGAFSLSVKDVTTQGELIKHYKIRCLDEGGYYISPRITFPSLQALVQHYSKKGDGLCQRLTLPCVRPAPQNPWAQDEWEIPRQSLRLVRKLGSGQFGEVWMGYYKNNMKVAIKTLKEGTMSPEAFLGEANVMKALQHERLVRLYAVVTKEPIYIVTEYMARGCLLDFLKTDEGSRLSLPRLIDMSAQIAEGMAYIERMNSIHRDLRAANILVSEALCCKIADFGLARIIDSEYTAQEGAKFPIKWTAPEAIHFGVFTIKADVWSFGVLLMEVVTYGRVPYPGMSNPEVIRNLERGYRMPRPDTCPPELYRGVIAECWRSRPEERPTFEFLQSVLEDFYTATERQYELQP", "experiment": "Biochemical enzymatic kinase assay, Blk"}, "[3]": {"test_system": "Tel-tyrosine kinase (Blk) transformed Ba/F3 cells", "experiment": "Cytotoxicity assay, Tel-Blk transformed Ba/F3 cells", "conditions": "cellular assay"}}, "data": [{"smiles": "CCOc1cc2ncc(C#N)c(Nc3ccc(F)c(Cl)c3)c2cc1NC(=O)/C=C/CN(C)C", "note": "[EKB-569]", "values": [{"measurement": "inhibition of EGFR (T790M)", "setting": "EGFR (T790M)", "value": "strongly inhibit"}]}, {"smiles": "C#Cc1cccc(Nc2ncnc3cc(OCCOC)c(OCCOC)cc23)c1", "note": "[erlotinib]", "values": [{"measurement": "in vitro autophosphorylation of Bmx (32P incorporation)", "setting": "full-length Flag-Bmx", "value": "not affected"}]}, {"smiles": "C=CC(=O)Nc1ccc2ncnc(Nc3cccc(Br)c3)c2c1", "note": "[PD168393]", "values": [{"measurement": "site of modification", "setting": "Bmx kinase domain; chymotryptic peptide ISNGCLL, tandem MS", "value": "modification of cysteine 496"}, {"measurement": "mass increase of Bmx kinase domain after incubation with inhibitor", "setting": "Bmx kinase domain; consistent with covalent addition of a single inhibitor molecule", "value": 369, "unit": "Da"}, {"measurement": "inhibitory activity against Bmx", "setting": "Bmx", "value": "only moderate potency"}, {"measurement": "inhibitory activity against Bmx", "setting": "[1]", "value": "only moderate potency"}]}, {"smiles": "C=CC(=O)Nc1cc2c(Nc3ccc(F)c(Cl)c3)ncnc2cc1OCCCN1CCOCC1", "note": "[CI-1033]", "values": [{"measurement": "toxicity in clinical phase II study", "setting": "[2]", "value": "severe toxicity"}, {"measurement": "inhibitory activity against Blk", "setting": "Blk", "value": "potent inhibitory activity"}, {"measurement": "inhibitory activity against Blk", "setting": "[3]", "value": "potent inhibitory activity"}]}]}
